According to patent US20150072988A1, “USE OF N-(4-((3-(2-AMINO-4-PYRIMIDINYL)-2-PYRIDINYL)OXY)PHENYL)-4-(4-METHYL-2-THIENYL)-1-PHTHALAZINAMINE IN COMBINATION WITH HISTONE DEACETYLASE INHIBITORS FOR TREATMENT OF CANCER” (THE JOHNS HOPKINS UNIVERSITY, priority 2012, published 2015):

Tested on: phospho-histone H3
Test: Immunoblotting of phospho-histone H3 in prostate cells
Type: cell-based
Conditions: single agent treatment
Description: Prostate cancer cell lines (DU-145, LNCaP, PC3) were obtained from ATCC. Cells were grown in RPMI-1640 (Invitrogen) with 10% Fetal Bovine Serum (FBS) (Gemini) and maintained in a […] humidified incubator supplemented with 5% CO2. Sodium salt of VPA (Sigma-Aldrich) was prepared in RPMI at a 1M stock on the day of treatment of the cells. Vorinostat (SAHA) (AtonPharma) and AMG 900 (Amgen) were maintained in 10 mM DMSO stock solutions at −20° C. and diluted in RPMI upon use. For combination studies, compounds were administered concomitantly.
Western blotting was performed as described previously. Kachhap S K, Rosmus N, et al. “Downregulation of homologous recombination repair genes by HDAC inhibition in prostate cancer is mediated through the E2F1 transcription factor”, PLoS One 2010;5:e11208. Loading volumes equalized to 20 μg of total protein were used. Primary antibodies were diluted 1:1000 in blocking solution with the exceptions of vinculin and phosphorylated aurora A-C, which were diluted 1:4000 and 1:500, respectively. Conjugated secondary antibodies were diluted 1:4000 in blocking solution. For blocking solution 5% milk in TBST (100 mM Tris-HCl ph 7.4, 0.1% Tween20, 150 mM NaCl in H2O) was used for p21, cyclin B1, vinculin, cleaved PARP and all secondary antibodies; 5% BSA in TBST was used for the primary antibodies phosphorylated aurora, and phosphorylated and total H3. Blots were developed on film and scanned into a computer at 300 dots per inch (dpi). Densitometric analyses were performed using ImageJ (Research Services Branch, National Institute of Mental Health).

SMILES | expression of phospho-histone H3 (pH3)
O=C(CCCCCCC(=O)Nc1ccccc1)NO [vorinostat] | decreased
CCCC(CCC)C(=O)O [valproic acid] | decreased
Cc1csc(-c2nnc(Nc3ccc(Oc4ncccc4-c4ccnc(N)n4)cc3)c3ccccc23)c1 [AMG 900, N-(4-((3-(2-amino-4-pyrimidinyl)-2-pyridinyl)oxy)phenyl)-4-(4-methyl-2-thienyl)-1-phthalazinamine] | decreased
